Laboratory results from patent publication EP0116439A2, “Fatty acid containing hair tonic composition” (priority 1983, dated 1984).
Values belong to the compound of their own block, whether it stands above or below them.

Experiments:
[1] = target: testosterone 5α-reductase; assay: testosterone 5α-reductase inhibitory activity (conversion of labelled testosterone to 5α-dihydrotestosterone); assay type: biochemical, rats; settings: microsome from rat prostate gland cells, 25°C, 60 minutes, pH 6.6
Procedure: The Sa-reductase inhibitory activity was determined as follows.
Prostate gland cells of rats were crushed and a specimen of testosterone 5α-reductase was then prepared by separating microsome from the crushed liquid mixture. The conversion of the testosterone to 5α-dihydrotestosterone by the use of the above-prepared enzyme specimen was monitored by radioisotopically labelled testosterone. The reaction mixture was extracted with ethyl acetate and the extract was developed twice by silica gel thin layer chromatography (solvent system, dichloromethane: cyclohexane:acetone = 15:4:1). The amount of 5α-dihydrotestosterone were determined from the intensities of the radioactivity.
A 30 µl amount of a 0.05 M phosphate buffer (pH = 6.6), 10 µl of an enzyme specimen, 8.5 pmol of labelled testosterone, 50 nmol of a reduced form of NADP (nicotinamide adenine dinucleotide phosphate), and 10 µl of a test sample were mixed (final volume = 50 µl). The mixture was included at a temperature of 25°C for 60 minutes.
The reaction was stopped by the addition of 100 ul of ethyl acetate, and the reaction mixture was extracted by vigorous shaking. The extract was developed in the same manner as mentioned above and the intensity of the radioisotope was measured by using a scintillation counter.
The above-mentioned determination was applied to the samples having various concentrations. The 5a--reductase inhibitory activity was obtained as a inhibitory rate (%) or a 50% inhibitory concentration (^IC50).

[2] = system: male rabbits; assay: fur growth on shorn back of rabbits; assay type: in vivo; design: Difference b, Average: unit not given here; settings: for Grown fur length Test side a', Average: 0.2% fatty acid solution in 80% aqueous ethanol; for Difference b, Average: test side minus control side, 0.2% fatty acid solution
Procedure: Ten week old male rabbits were shorn on the back. A 0.2% fatty acid solution in 80% aqueous ethanol solution was applied, twice a day, to a half-side of the shorn portion of each rabbit for one week. As a control, a 80% aqueous ethanol solution was also applied, twice a day, to the other half-side of the shorn portion of each rabbit for one week (two week for linoleic acid). The length of the grown fur was measured.

Compound: CCCCCCCCCCC/C=C\CCCCC(=O)O [Petroselinic acid, petroselinic acid]
- IC50 [1]: 280 µM
- Grown fur length Test side a', Average ([2]; twice a day for one week): 6.66^*2
- Difference b, Average ([2]; twice a day for one week): 0.50

Compound: CC/C=C\C/C=C\C/C=C\CCCCCCCC(=O)O [Linolenic acid, linolenic acid]
- Grown fur length Test side a', Average ([2]; twice a day for one week): 5.46^*2
- Difference b, Average ([2]; twice a day for one week): 0.45

Compound: CCCCCCCC/C=C\CCCCCCCC(=O)O [Oleic Acid, oleic acid]
- IC50 [1]: 320 µM
- Grown fur length Test side a', Average ([2]; twice a day for one week): 6.102^*2
- Difference b, Average ([2]; twice a day for one week): 0.626

Compound: CCCCCCCCCCCCCC(=O)O [Myristic acid, myristic acid]
- IC50 [1]: 1800 µM
- Grown fur length Test side a', Average ([2]; twice a day for one week): 6.583^*2
- Difference b, Average ([2]; twice a day for one week): 0.661

Compound: CCCCCCCCCC(=O)O [n-Capric acid, n-capric acid]
- IC50 [1]: 500 µM
- Grown fur length Test side a', Average ([2]; twice a day for one week): 7.542^*2
- Difference b, Average ([2]; twice a day for one week): 0.557

Compound: CCC=CC=CC=CC=CCCCCCCCC(=O)O [Parinaric acid, parinaric acid]
- IC50 [1]: 1100 µM
- Grown fur length Test side a', Average ([2]; twice a day for one week): 6.83^*2
- Difference b, Average ([2]; twice a day for one week): 0.60

Compound: CCCCCCCCCCCC(=O)O [Lauric acid, lauric acid]
- IC50 [1]: 600 µM
- Grown fur length Test side a', Average ([2]; twice a day for one week): 5.667^*2
- Difference b, Average ([2]; twice a day for one week): 0.776

Compound: CCCCC/C=C\C/C=C\C/C=C\C/C=C\CCCC(=O)O [Arachidonic acid, arachidonic acid]
- IC50 [1]: 150 µM
- Grown fur length Test side a', Average ([2]; twice a day for one week): 7.561^*2
- Difference b, Average ([2]; twice a day for one week): 0.78

Second part, led by results:

- IC50 [1]: 180 µM
Compound: CCCCCC/C=C\CCCCCCCC(=O)O [Palmitoleic acid, palmitoleic acid]
- Grown fur length Test side a', Average ([2]; twice a day for one week): 8.051^*2
- Difference b, Average ([2]; twice a day for one week): 0.862

- IC50 [1]: 300 µM
Compound: CCCCCCCCCCCCCCCC(=O)O [Palmitic acid, palmitic acid]
- Grown fur length Test side a', Average ([2]; twice a day for one week): 6.056^*2
- Difference b, Average ([2]; twice a day for one week): 0.958

- IC50 [1]: 1700 µM
Compound: CCCCCCCC(=O)O [n-Caprylic acid, n-caprylic acid]
- Grown fur length Test side a', Average ([2]; twice a day for one week): 5.38^*2
- Difference b, Average ([2]; twice a day for one week): 0.32

- IC50 [1]: 180 µM
Compound: CCCCC/C=C\C/C=C\CCCCCCCC(=O)O [Linoleic acid, linoleic acid]
- Grown fur length Test side a', Average ([2]; twice a day, two week): 9.98^*2
- Difference b, Average ([2]; twice a day, two week): 0.43
